Assay results taken from ChEMBL document CHEMBL3351815, “Synthesis of fluorinated agonist of sphingosine-1-phosphate receptor 1” (Bioorg Med Chem, 2014).
Active and inactive are the calls of the source. The calls are words filed in the database; no cut-off is given here.

How the values were obtained:
[1] = biological target: Sphingosine 1-phosphate receptor 1 (Homo sapiens) (UniProt P21453); experiment: Agonist activity at S1P receptor in human PC3 cells assessed as increase in proliferation at 100 nM after 24 hrs by [3H]-thymidine incorporation assay; assay type: cell-based; settings: PC-3
[2] = biological target: Sphingosine 1-phosphate receptor 1 (Homo sapiens) (UniProt P21453); experiment: Agonist activity at S1P receptor in human C4-2B cells assessed as increase in proliferation at 100 nM after 24 hrs by [3H]-thymidine incorporation assay; assay type: cell-based
[3] = Antiproliferative activity against human PC3 cells assessed as reduction in proliferation after 24 hrs by [3H]-thymidine incorporation assay; assay type: functional, cell-based; settings: PC-3
[4] = Antiproliferative activity against human C4-2B cells assessed as reduction in proliferation after 24 hrs by [3H]-thymidine incorporation assay; assay type: functional, cell-based; settings: LNCaP C4-2B
PC-3 = experiment: Antiproliferative activity against human PC3 cells assessed as reduction in proliferation at 1 to 10 uM after 24 hrs by MTT assay; assay type: functional, cell-based
LNCaP C4-2B = experiment: Antiproliferative activity against human C4-2B cells assessed as reduction in proliferation at 1 to 100 uM after 24 hrs by MTT assay; assay type: functional, cell-based

Sphingosine 1-phosphate receptor 1 (Homo sapiens), sequence (P21453 whole entry): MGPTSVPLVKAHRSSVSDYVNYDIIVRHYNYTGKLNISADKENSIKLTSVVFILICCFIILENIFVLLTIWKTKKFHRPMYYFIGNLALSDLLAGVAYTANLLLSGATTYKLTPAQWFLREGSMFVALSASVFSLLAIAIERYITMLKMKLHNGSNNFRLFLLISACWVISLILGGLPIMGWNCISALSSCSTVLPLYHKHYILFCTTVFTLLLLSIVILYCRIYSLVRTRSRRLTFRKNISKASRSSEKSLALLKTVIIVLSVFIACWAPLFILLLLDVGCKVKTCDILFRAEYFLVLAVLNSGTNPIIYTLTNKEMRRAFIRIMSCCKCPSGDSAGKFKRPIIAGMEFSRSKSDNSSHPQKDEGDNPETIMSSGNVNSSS

| Activity [1] | Activity [2] | SMILES | IC50 [3] [µM] | IC50 [4] [nM] | inhibition (PC-3) | inhibition (LNCaP C4-2B) |
| --- | --- | --- | --- | --- | --- | --- |
| Active | Active | CCCCCCCCc1ccc(CCC(N)(CO)COP(=O)(O)O)cc1 (stereo not given) |  |  |  |  |
| inactive | inactive | CCCCCCCCc1ccc(CCC(N)CC(F)(F)P(=O)(O)O)cc1 (stereo not given) | 20 | 3000 | Active | Active |

| SMILES | Activity [1] | Activity [2] | IC50 [3] [µM] | IC50 [4] [nM] | inhibition (PC-3) | inhibition (LNCaP C4-2B) |
| --- | --- | --- | --- | --- | --- | --- |
| CCCCCCCCCCCCC/C=C/[C@@H](O)[C@@H](N)COP(=O)(O)O | Active | Active |  |  |  |  |
